Measured values from ChEMBL document CHEMBL3865833, “Functional induction of P-glycoprotein efflux pump by phenyl benzenesulfonamides: Synthesis and biological evaluation of T0901317 analogs” (Eur J Med Chem, 2016).

Columns and labels:
[1] = Cytotoxicity against human LS180 cells assessed as effect on cell viability at 50 uM measured after 24 hrs by MTT assay relative to control; assay type: toxicity, cell-based; conditions: read-out: Activity
LS180 = assay: Activation of PXR/LXR in human LS180 cells assessed as induction of P-gp measured as intracellular accumulation of Rhodamine-123 at 5 uM preincubated for 48 hrs followed by 40 mins incubation with HANKS buffer and subsequent addition of Rhodamine-123 measured after 90 mins by fluorescence analysis relative to control; assay type: cell-based
[2] = Therapeutic index, ratio of effective concentration for cytotoxicity in human LS180 cells to effective concentration for activation of PXR/LXR in human LS180 cells assessed as induction of P-gp; assay type: cell-based; conditions: read-out: TI
[3] = Cytotoxicity against human SH-SY5Y cells assessed as effect on cell viability at 50 uM measured after 24 hrs by MTT assay relative to control; assay type: toxicity, cell-based; conditions: read-out: Activity
[4] = Therapeutic index, ratio of effective concentration for cytotoxicity in human SH-SY5Y cells to effective concentration for activation of PXR/LXR in human LS180 cells assessed as induction of P-gp; assay type: cell-based; conditions: read-out: TI

| Compound | viability at 24 h, 50 µM [1] | Activity (LS180) | selectivity ratio [2] | viability at 24 h, 50 µM [3] | selectivity ratio [4] |
| --- | --- | --- | --- | --- | --- |
| Cc1ccc(-n2cc(CN(c3ccc(C(O)(C(F)(F)F)C(F)(F)F)cc3)S(=O)(=O)c3ccccc3)nn2)cc1 | 71.9% | 74.6% | 10 | 48.9% |  |
| O=[N+]([O-])c1ccc(-n2cc(CN(c3ccc(C(O)(C(F)(F)F)C(F)(F)F)cc3)S(=O)(=O)c3ccccc3)nn2)cc1 | 66.2% | 80.6% | 10 | 39.6% | 10 |
| CC(=O)c1ccc(-n2cc(CN(c3ccc(C(O)(C(F)(F)F)C(F)(F)F)cc3)S(=O)(=O)c3ccccc3)nn2)cc1 | 70.7% | 81.6% | 10 | 42.2% | 10 |
| CC(=O)c1ccc(N(Cc2cn(-c3ccc(C)cc3)nn2)S(=O)(=O)c2ccccc2)cc1 | 84.1% | 58.6% | 10 | 85.8% | 10 |
| CC(=O)c1ccc(N(Cc2cn(-c3cccc(C(C)=O)c3)nn2)S(=O)(=O)c2ccccc2)cc1 | 84.7% | 71% | 10 | 78.7% | 10 |
| O=S(=O)(c1ccccc1)N(Cc1cn(-c2ccc(OC(F)(F)F)cc2)nn1)c1ccc(C(O)(C(F)(F)F)C(F)(F)F)cc1 | 68.7% | 67.8% | 10 | 43.5% | 10 |
| O=S(=O)(c1ccccc1)N(Cc1cn(-c2ccc(C(F)(F)F)cc2)nn1)c1ccc(C(O)(C(F)(F)F)C(F)(F)F)cc1 | 62.8% | 70.2% | 10 | 49.8% | 10 |
| Cc1ccc(C)c(-n2cc(CN(c3ccc(C(O)(C(F)(F)F)C(F)(F)F)cc3)S(=O)(=O)c3ccccc3)nn2)c1 | 76.9% | 69% | 10 | 93% | 10 |
| O=S(=O)(c1ccccc1)N(Cc1cn(-c2ccccc2)nn1)c1ccc(C(O)(C(F)(F)F)C(F)(F)F)cc1 | 46.4% | 87.9% | 10 | 39.5% | 10 |
| C#CCOC(c1ccc(N(CC#C)S(=O)(=O)c2ccccc2)cc1)(C(F)(F)F)C(F)(F)F | 78.7% | 79.7% | 10 | 88.7% | 10 |
| CC(=O)c1ccc(N(Cc2cn(-c3ccccc3C)nn2)S(=O)(=O)c2ccccc2)cc1 | 64.4% | 65.1% | 10 | 92.9% | 10 |
| CCOC(=O)c1ccc(-n2cc(CN(c3ccc(C(O)(C(F)(F)F)C(F)(F)F)cc3)S(=O)(=O)c3ccccc3)nn2)cc1 | 76.5% | 91.3% | 10 | 73.8% | 10 |
| CC(=O)c1ccc(N(Cc2cn(-c3ccccc3C#N)nn2)S(=O)(=O)c2ccccc2)cc1 | 91.8% | 86.2% | 10 | 99% | 10 |
| O=S(=O)(c1ccccc1)N(Cc1cn(-c2ccc(F)cc2)nn1)c1ccc(C(O)(C(F)(F)F)C(F)(F)F)cc1 | 51.5% | 70.5% | 10 | 36.4% | 10 |
| CC(=O)c1ccc(N(Cc2ccccc2)S(=O)(=O)c2ccccc2)cc1 | 89.5% | 64.5% | 10 | 112% |  |
| CC(=O)c1ccc(N(Cc2cn(-c3cccc([N+](=O)[O-])c3)nn2)S(=O)(=O)c2ccccc2)cc1 | 112% | 71.6% | 10 | 74.2% | 10 |
| CC(=O)c1ccc(N(Cc2cn(-c3c(C)cccc3C)nn2)S(=O)(=O)c2ccccc2)cc1 | 60.6% | 58.4% | 10 | 80.4% | 10 |
| C#CCN(c1ccc(C(O)(C(F)(F)F)C(F)(F)F)cc1)S(=O)(=O)c1ccccc1 | 89.5% | 60.8% | 10 | 112% | 10 |
| Cc1ccc(-n2cc(CN(c3ccc(C(O)(C(F)(F)F)C(F)(F)F)cc3)S(=O)(=O)c3ccccc3)nn2)cc1C | 80% | 68.7% | 10 | 68.7% | 10 |
| COc1ccc(-n2cc(CN(c3ccc(C(O)(C(F)(F)F)C(F)(F)F)cc3)S(=O)(=O)c3ccccc3)nn2)cc1 | 84.9% | 81.4% | 10 | 59.2% | 10 |
| CC(=O)c1ccc(N(Cc2cn(-c3ccc(C(O)(C(F)(F)F)C(F)(F)F)cc3)nn2)S(=O)(=O)c2ccccc2)cc1 | 103% | 87.4% |  | 123% |  |
| CC(=O)c1ccc(N(Cc2cn(-c3ccc(OC(F)(F)F)cc3)nn2)S(=O)(=O)c2ccccc2)cc1 | 67.6% | 83.4% | 10 | 64.4% | 10 |
| CC(=O)c1ccc(N(Cc2cn(-c3ccc([N+](=O)[O-])cc3)nn2)S(=O)(=O)c2ccccc2)cc1 | 74.7% | 55.6% | 10 | 105% | 10 |
| CC(=O)c1ccc(N(Cc2cn(-c3ccc(O)c([N+](=O)[O-])c3)nn2)S(=O)(=O)c2ccccc2)cc1 | 96.1% | 74% | 10 | 71.3% | 10 |
| O=S(=O)(c1ccccc1)N(Cc1cn(-c2cccc(F)c2)nn1)c1ccc(C(O)(C(F)(F)F)C(F)(F)F)cc1 | 56% | 90.3% | 10 | 29.8% | 10 |
| CC(=O)c1ccc(N(Cc2cn(-c3ccc(Cl)cc3)nn2)S(=O)(=O)c2ccccc2)cc1 | 88.1% | 68.8% | 10 | 74.4% |  |
| CC(=O)c1ccc(N(CC(F)(F)F)S(=O)(=O)c2ccccc2)cc1 | 88.3% | 63.5% | 10 | 81.3% |  |
| CC(=O)c1ccc(N(Cc2cn(-c3ccccc3F)nn2)S(=O)(=O)c2ccccc2)cc1 | 83.8% | 55.7% |  | 93.6% | 10 |
| O=S(=O)(c1ccccc1)N(Cc1cn(-c2ccc(F)cc2F)nn1)c1ccc(C(O)(C(F)(F)F)C(F)(F)F)cc1 | 93.6% | 66.3% |  | 86.5% | 10 |
| CC(=O)c1ccc(N(Cc2cn(-c3ccc(F)cc3)nn2)S(=O)(=O)c2ccccc2)cc1 | 60% | 55.9% |  | 90.4% | 10 |
